How the values were obtained:
[1] = Lipophilicity, log D of the compound at pH 7.4; type: physicochemical; details: buffer
[2] = Intrinsic clearance in rat hepatocytes assessed as per million cells; type: ADME, cell-based, Hepatocyte; details: read-out: CLH
[3] = Intrinsic clearance in human hepatocytes assessed as per million cells; type: ADME, cell-based, Hepatocyte; details: read-out: CLH
[4] = Intrinsic clearance in dog hepatocytes assessed as per million cells; type: ADME, cell-based, Canis lupus familiaris, Hepatocyte; details: read-out: CLH
[5] = Clearance in rat; type: ADME, organism-based; details: in vivo
[6] = Half life in rat; type: ADME, organism-based; details: in vivo
[7] = Oral bioavailability in rat; type: ADME, organism-based; details: in vivo
[8] = Volume of distribution at steady state in rat; type: ADME, organism-based; details: in vivo, read-out: Vdss
[9] = Half life in dog; type: ADME, organism-based, Canis lupus familiaris; details: in vivo
[10] = Volume of distribution at steady state in dog; type: ADME, organism-based, Canis lupus familiaris; details: in vivo, read-out: Vdss
[11] = Clearance in dog; type: ADME, organism-based, Canis lupus familiaris; details: in vivo
[12] = Oral bioavailability in dog; type: ADME, organism-based, Canis lupus familiaris; details: in vivo

| SMILES | logD [1] | hepatocyte CLint [2] [µL/min/1e6 cells] | further results |
| --- | --- | --- | --- |
| COCCS(=O)(=O)Nc1cc(-c2sc(NC(C)=O)nc2C)cc2c1C(=O)N([C@@H](C)C1CC1)C2 | 3.5 | 166 |  |
| CC(=O)Nc1nc(C)c(-c2cc3c(c(S(C)(=O)=O)c2)C(=O)N([C@@H](C)C2CC2)C3)s1 | 2.4 | 1.7 to 2 | hepatocyte CLint [3]: 0.4 µL/min/1e6 cells; hepatocyte CLint [4]: 1 µL/min/1e6 cells; clearance [5]: 6.3 mL/min/kg; half-life [6]: 2.3 h; bioavailability [7]: 51%; Vd [8]: 1.2 L/kg; half-life [9]: 3.9 h; Vd [10]: 1.1 L/kg |
| CC(=O)Nc1nc(C)c(-c2cc(C)c3c(c2)CN([C@@H](C)C2CC2)C3=O)s1 | 4.3 | 11 |  |
| CC(=O)Nc1nc(C)c(-c2cc(Cl)c3c(c2)CN([C@@H](C)C2CC2)C3=O)s1 | 3.9 | 3 |  |
| CC(=O)Nc1nc(C)c(-c2cc3c(c(NS(C)(=O)=O)c2)C(=O)N([C@@H](C)C2CC2)C3)s1 | 3.3 | 3.7 to 4 | hepatocyte CLint [3]: 3.4 µL/min/1e6 cells; hepatocyte CLint [4]: 7.6 µL/min/1e6 cells; clearance [5]: 0.7 mL/min/kg; half-life [6]: 6.7 h; bioavailability [7]: 49%; Vd [8]: 0.4 L/kg; clearance [11]: 6.2 mL/min/kg; half-life [9]: 1.3 h; bioavailability [12]: 1.6%; Vd [10]: 0.7 L/kg |
| C[C@@H](C1CC1)N1Cc2cc(-c3cnc(N)nc3)cc(Cl)c2C1=O | 2.6 | 2 |  |
| CC(=O)Nc1nc(C)c(-c2cc(Cl)c3c(c2)CN([C@H](C)C2CC2)C3=O)s1 | 3.9 | 6 |  |
| COCCNS(=O)(=O)c1cc(-c2sc(NC(C)=O)nc2C)cc2c1C(=O)N([C@@H](C)C1CC1)C2 | 2.7 | 56 |  |
| CC(=O)Nc1nc(C)c(-c2cc3c(c(S(N)(=O)=O)c2)C(=O)N([C@@H](C)C2CC2)C3)s1 | 2.5 | < 2 |  |
| Cc1cc(-c2cnc3[nH]ccc3n2)cc2c1C(=O)N([C@@H](C)C1CC1)C2 | 4.3 | 146 |  |
| Cc1cc(-c2nccnc2N)cc2c1C(=O)N([C@@H](C)C1CC1)C2 | 2.6 | 43 |  |
| CC(=O)Nc1nc(C)c(-c2cc3c(c(S(=O)(=O)CCCO)c2)C(=O)N([C@@H](C)C2CC2)C3)s1 | 1.9 | 6 |  |
| CNS(=O)(=O)c1cc(-c2sc(NC(C)=O)nc2C)cc2c1C(=O)N([C@@H](C)C1CC1)C2 | 3 | 4.5 to 5 | hepatocyte CLint [3]: 0.5 µL/min/1e6 cells; hepatocyte CLint [4]: 2.1 µL/min/1e6 cells; clearance [5]: 4.4 mL/min/kg; half-life [6]: 2.6 h; bioavailability [7]: 30%; Vd [8]: 1 L/kg; clearance [11]: 2.1 mL/min/kg; half-life [9]: 12 h; bioavailability [12]: 44%; Vd [10]: 2.2 L/kg |
| CC(=O)Nc1ncc(-c2cc(Cl)c3c(c2)CN([C@@H](C)C2CC2)C3=O)s1 | 3.8 | 2 |  |
| CNC(=O)c1nc(-c2cc(C)c3c(c2)CN([C@@H](C)C2CC2)C3=O)cnc1N | 3.8 | 4 |  |

Source: ChEMBL document CHEMBL4118226, “Discovery of Highly Isoform Selective Orally Bioavailable Phosphoinositide 3-Kinase (PI3K)-γ Inhibitors” (J Med Chem, 2018)
